Results reported in US12433838B2, “Liposomal formulation of bacterial lipopolysaccharide combined with a cytotoxic agent, and use thereof in anti-tumour therapy” (priority 2017, dated 2025).

Tests used:
[1] = test system: SaOS cells; assay: Apoptosis of SaOS spheroids with Lipo-LPS-activated THP-1 macrophages and/or etoposide (IncuCyte Caspase-3/7); format: cell-based, rat; conditions: 5 μM etoposide or macrophages stimulated 16 h with 100 ng/mL Lipo-LPS, fluorescence arbitrary units, FIG. 6
Text: The SaOS cells are […] osteosarcoma cells. This is a malignant bone tumour. These cells can be cultured according to a 3D spheroid model adapted to tumour cells.
THP-1 are human monocytic cells derived from an acute monocytic leukemia.
To perform cellular death monitoring of these SaOS cells, the fluorescent product IncuCyte® Caspase-3/7 has been used to evaluate the number of apoptosis cells.
The results are shown in FIG. 6, in fluorescence arbitrary units.

[2] = test system: RL lymphoma cells (CD20+ human B lymphoma cells); assay: Tumour growth monitoring in RL cells xenografted mice; format: in vivo, Scid CB17 mice; conditions: 46 days after the tumour graft; 30 mg/kg, one injection per week; FIG. 1
Text: During this experiment, six groups of Scid CB17 mice have been used. Each group is comprised at six mice.
Group 1=control (no treatment)

Molecule	Apoptosis rate of SaOS cells with respect to the control [1]	Apoptosis rate of SaOS cells with respect to the control ([1]; listed as epotoside)	Tumour volume relative to control mice [2]
COc1cc([C@@H]2c3cc4c(cc3[C@@H](O[C@@H]3O[C@@H]5CO[C@@H](C)O[C@H]5[C@H](O)[C@H]3O)[C@H]3COC(=O)[C@H]23)OCO4)cc(OC)c1O [etoposide]	induces cancer cell apoptosis	significantly increased with respect to the control	
rituximab			twice lower
